Assay results from article PMC8371461 (Frontiers in Pharmacology, 2021).

Experiments:
[1] = target: T1, MLCK (Homo sapiens, UniProt Q32MK0); test: kinome scan; type: binding; details: 10 µM
T1 construct: purchased DiscoverX (KINOMEscan)

[2] = target: T2, DYRK1B (Homo sapiens, UniProt Q9Y463); test: kinome scan; type: binding; details: 10 µM
T2 construct: purchased DiscoverX (KINOMEscan)

[3] = target: T3, HUNK (Homo sapiens, UniProt P57058); test: kinome scan; type: binding; details: 10 µM
T3 construct: purchased DiscoverX (KINOMEscan)

[4] = target: T4, BRAF (Homo sapiens, UniProt P15056); test: kinome scan; type: binding; details: 10 µM
T4 construct: purchased DiscoverX (KINOMEscan)

[5] = target: T5, ASK1 (Homo sapiens, UniProt Q99683); test: kinome scan; type: binding; details: 10 µM
T5 construct: purchased DiscoverX (KINOMEscan)

[6] = target: T6, MLK1 (Homo sapiens, UniProt P80192); test: kinome scan; type: binding; details: 10 µM
T6 construct: purchased DiscoverX (KINOMEscan)

[7] = target: T7, MAPKAPK2 (Homo sapiens, UniProt P49137); test: kinome scan; type: binding; details: 10 µM
T7 construct: purchased DiscoverX (KINOMEscan)

[8] = target: T8, PLK3 (Homo sapiens, UniProt Q9H4B4); test: kinome scan; type: binding; details: 10 µM
T8 construct: purchased DiscoverX (KINOMEscan)

[9] = target: T9, EPHA1 (Homo sapiens, UniProt P21709); test: kinome scan; type: binding; details: 10 µM
T9 construct: purchased DiscoverX (KINOMEscan)

[10] = target: T10, DAPK1 (Homo sapiens, UniProt P53355); test: kinome scan; type: binding; details: 10 µM
T10 construct: purchased DiscoverX (KINOMEscan)

[11] = target: T11, SIK (Homo sapiens, UniProt P57059); test: kinome scan; type: binding; details: 10 µM
T11 construct: purchased DiscoverX (KINOMEscan)

[12] = target: T12, LRRK2(G2019S) (Homo sapiens, UniProt Q5S007, G2019S); test: kinome scan; type: binding; details: 10 µM
T12 construct: purchased DiscoverX (KINOMEscan)

[13] = target: T13, SRPK2 (Homo sapiens, UniProt P78362); test: kinome scan; type: binding; details: 10 µM
T13 construct: purchased DiscoverX (KINOMEscan)

[14] = target: T14, EPHB2 (Homo sapiens, UniProt P29323); test: kinome scan; type: binding; details: 10 µM
T14 construct: purchased DiscoverX (KINOMEscan)

[15] = target: T15, NEK7 (Homo sapiens, UniProt Q8TDX7); test: kinome scan; type: binding; details: 10 µM
T15 construct: purchased DiscoverX (KINOMEscan)

[16] = target: T16, PAK1 (Homo sapiens, UniProt Q13153); test: kinome scan; type: binding; details: 10 µM
T16 construct: purchased DiscoverX (KINOMEscan)

[17] = target: T17, FLT3(N841I) (Homo sapiens, UniProt P36888, N841I); test: kinome scan; type: binding; details: 10 µM
T17 construct: purchased DiscoverX (KINOMEscan)

[18] = target: T18, ALK (Homo sapiens, UniProt Q9UM73); test: kinome scan; type: binding; details: 10 µM
T18 construct: purchased DiscoverX (KINOMEscan)

[19] = target: T19, ARK5 (Homo sapiens, UniProt O60285); test: kinome scan; type: binding; details: 10 µM
T19 construct: purchased DiscoverX (KINOMEscan)

[20] = target: T20, CSF1R (Homo sapiens, UniProt P07333); test: kinome scan; type: binding; details: 10 µM
T20 construct: purchased DiscoverX (KINOMEscan)

[21] = target: T21, ROCK1 (Homo sapiens, UniProt Q13464); test: kinome scan; type: binding; details: 10 µM
T21 construct: purchased DiscoverX (KINOMEscan)

[22] = system: CGR8EF1αS,RLuc-Tα1,FLuc cells; test: cell viability by propidium iodide; type: cell-based, mouse; details: up to 10 µM, 72 h
Protocol: The CGR8 mouse PSC were cultured as described ([Suter et al., 2009]). For neural induction, CGR8 cells were plated in 96-well plates at a density of 10,000 cells/cm^2 on gelatine-coated cell culture plates, in differentiation medium [BHK-21 medium supplemented with 20% foetal calf serum (Thermofisher), L-glutamine 2 mM (Thermofisher), non-essential amino acids (1X, Thermofisher), sodium pyruvate 1 mM (Thermofisher), penicillin/streptomycin 50 U/ml (Thermofisher)]. CGR8EF1αS,RLuc-Tα1,FLuc cells were described in ([Suter et al., 2009]) and were cultured as described above. Luminescence assays were directly performed in 96-well plates with the Dual Luciferase Reporter Assay System (Promega) according to the manufacturer’s instructions. Luminescence was measured with the SpectraMax L Microplate luminometer (Molecular Devices). Cell viability in the wells was measured by the addition of propidium iodide 1 µg/ml in 100 µL of PBS and fluorescence was assessed in each well using a FluoStar Optima reader (Pharmaceutical Technology Group at the University of Geneva).
After two days, cells were lysed for the quantification of intracellular ATP. […] After three days, cells were lysed for the quantification of F-luminescence (FLuc) and R-luminescence (RLuc) in the presence of the respective substrates.

[23] = target: T22, FGR (Homo sapiens, UniProt P09769); test: kinome scan; type: binding; details: 10 µM
T22 construct: purchased DiscoverX (KINOMEscan)

[24] = target: T23, PLK2 (Homo sapiens, UniProt Q9NYY3); test: kinome scan; type: binding; details: 10 µM
T23 construct: purchased DiscoverX (KINOMEscan)

[25] = target: T24, GSK3B (Homo sapiens, UniProt P49841); test: kinome scan; type: binding; details: 10 µM
T24 construct: purchased DiscoverX (KINOMEscan)

[26] = target: T25, AXL (Homo sapiens, UniProt P30530); test: kinome scan; type: binding; details: 10 µM
T25 construct: purchased DiscoverX (KINOMEscan)

[27] = target: T26, JNK3 (Homo sapiens, UniProt P53779); test: kinome scan; type: binding; details: 10 µM
T26 construct: purchased DiscoverX (KINOMEscan)

[28] = target: T27, ACVR1B (Homo sapiens, UniProt P36896); test: kinome scan; type: binding; details: 10 µM
T27 construct: purchased DiscoverX (KINOMEscan)

[29] = target: T28, ABL1(T315I)-nonphosphorylated (Homo sapiens, UniProt P00519, T315I); test: kinome scan; type: binding; details: 10 µM
T28 construct: purchased DiscoverX (KINOMEscan)

[30] = target: T29, KIT(V559DV654A) (Homo sapiens, UniProt P10721, V559D/V654A); test: kinome scan; type: binding; details: 10 µM
T29 construct: purchased DiscoverX (KINOMEscan)

[31] = target: T30, HIPK1 (Homo sapiens, UniProt Q86Z02); test: kinome scan; type: binding; details: 10 µM
T30 construct: purchased DiscoverX (KINOMEscan)

[32] = target: T31, ERK4 (Homo sapiens, UniProt P31152); test: kinome scan; type: binding; details: 10 µM
T31 construct: purchased DiscoverX (KINOMEscan)

[33] = target: T32, DLK (Homo sapiens, UniProt Q12852); test: kinome scan; type: binding; details: 10 µM
T32 construct: purchased DiscoverX (KINOMEscan)

[34] = target: T33, BMX (Homo sapiens, UniProt P51813); test: kinome scan; type: binding; details: 10 µM
T33 construct: purchased DiscoverX (KINOMEscan)

[35] = target: T34, LIMK1 (Homo sapiens, UniProt P53667); test: kinome scan; type: binding; details: 10 µM
T34 construct: purchased DiscoverX (KINOMEscan)

[36] = target: T35, RSK1(Kin.Dom.2-C-terminal) (Homo sapiens, UniProt Q15418); test: kinome scan; type: binding; details: 10 µM
T35 construct: RSK1(Kin.Dom.2-C-terminal); purchased DiscoverX (KINOMEscan)
T35 sequence (Q15418 418-675 limits assumed): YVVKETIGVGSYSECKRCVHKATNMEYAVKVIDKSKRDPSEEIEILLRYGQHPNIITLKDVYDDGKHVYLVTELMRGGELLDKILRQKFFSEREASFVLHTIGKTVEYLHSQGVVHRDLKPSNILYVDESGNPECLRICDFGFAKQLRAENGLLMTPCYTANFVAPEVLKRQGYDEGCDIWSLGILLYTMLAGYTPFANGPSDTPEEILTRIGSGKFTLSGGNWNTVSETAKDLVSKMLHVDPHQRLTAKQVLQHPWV

T22 sequence (P09769 whole entry): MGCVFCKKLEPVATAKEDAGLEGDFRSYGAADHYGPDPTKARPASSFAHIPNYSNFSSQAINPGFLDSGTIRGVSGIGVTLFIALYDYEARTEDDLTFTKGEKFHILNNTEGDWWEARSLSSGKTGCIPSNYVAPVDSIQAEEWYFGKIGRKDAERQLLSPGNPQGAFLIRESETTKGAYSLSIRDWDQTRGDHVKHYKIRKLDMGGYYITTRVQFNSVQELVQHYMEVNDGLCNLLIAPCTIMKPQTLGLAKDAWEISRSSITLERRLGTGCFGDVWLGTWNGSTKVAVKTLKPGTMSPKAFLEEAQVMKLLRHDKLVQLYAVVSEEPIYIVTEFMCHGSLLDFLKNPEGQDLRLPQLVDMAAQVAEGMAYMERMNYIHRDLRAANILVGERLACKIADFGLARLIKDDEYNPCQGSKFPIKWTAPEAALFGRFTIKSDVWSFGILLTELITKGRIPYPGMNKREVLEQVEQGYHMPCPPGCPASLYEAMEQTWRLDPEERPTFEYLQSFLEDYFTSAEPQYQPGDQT
T31 sequence (P31152 whole entry): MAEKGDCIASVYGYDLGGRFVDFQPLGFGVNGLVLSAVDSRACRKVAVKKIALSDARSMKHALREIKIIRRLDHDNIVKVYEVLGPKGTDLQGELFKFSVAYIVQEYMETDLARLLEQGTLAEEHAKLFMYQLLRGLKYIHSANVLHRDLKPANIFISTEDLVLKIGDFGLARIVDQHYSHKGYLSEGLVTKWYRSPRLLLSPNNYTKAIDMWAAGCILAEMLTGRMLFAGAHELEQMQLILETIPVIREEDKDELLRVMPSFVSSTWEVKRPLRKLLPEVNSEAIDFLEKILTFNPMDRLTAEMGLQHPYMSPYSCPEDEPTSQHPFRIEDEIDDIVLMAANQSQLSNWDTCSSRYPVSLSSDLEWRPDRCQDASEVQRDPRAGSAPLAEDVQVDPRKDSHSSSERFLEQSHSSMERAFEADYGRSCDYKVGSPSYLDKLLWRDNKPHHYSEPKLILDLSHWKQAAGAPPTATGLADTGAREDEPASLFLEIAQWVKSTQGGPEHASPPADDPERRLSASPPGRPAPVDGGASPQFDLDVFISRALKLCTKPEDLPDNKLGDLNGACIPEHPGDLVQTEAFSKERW
T32 sequence (Q12852 whole entry): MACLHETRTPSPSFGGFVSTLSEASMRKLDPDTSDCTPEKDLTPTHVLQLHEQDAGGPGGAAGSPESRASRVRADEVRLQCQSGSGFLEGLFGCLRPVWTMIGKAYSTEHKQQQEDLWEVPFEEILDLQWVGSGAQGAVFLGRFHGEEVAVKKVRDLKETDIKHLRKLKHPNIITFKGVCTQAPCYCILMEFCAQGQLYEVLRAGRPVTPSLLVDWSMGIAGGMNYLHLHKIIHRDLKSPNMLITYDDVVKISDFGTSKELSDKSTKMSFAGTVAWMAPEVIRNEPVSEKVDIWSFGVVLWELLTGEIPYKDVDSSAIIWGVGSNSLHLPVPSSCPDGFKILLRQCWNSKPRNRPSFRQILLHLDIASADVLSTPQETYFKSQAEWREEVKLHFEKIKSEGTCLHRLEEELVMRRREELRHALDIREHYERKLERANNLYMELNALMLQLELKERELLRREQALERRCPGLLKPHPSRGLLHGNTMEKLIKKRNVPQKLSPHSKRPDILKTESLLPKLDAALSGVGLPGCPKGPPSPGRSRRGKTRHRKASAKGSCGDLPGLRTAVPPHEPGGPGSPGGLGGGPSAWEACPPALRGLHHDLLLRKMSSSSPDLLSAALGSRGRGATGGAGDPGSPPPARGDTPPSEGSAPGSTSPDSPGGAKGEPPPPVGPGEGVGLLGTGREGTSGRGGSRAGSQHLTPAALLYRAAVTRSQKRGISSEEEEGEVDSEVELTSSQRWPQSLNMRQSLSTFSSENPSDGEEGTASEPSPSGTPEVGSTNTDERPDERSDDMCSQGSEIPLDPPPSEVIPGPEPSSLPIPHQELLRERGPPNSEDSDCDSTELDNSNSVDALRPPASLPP
T13 sequence (P78362 whole entry): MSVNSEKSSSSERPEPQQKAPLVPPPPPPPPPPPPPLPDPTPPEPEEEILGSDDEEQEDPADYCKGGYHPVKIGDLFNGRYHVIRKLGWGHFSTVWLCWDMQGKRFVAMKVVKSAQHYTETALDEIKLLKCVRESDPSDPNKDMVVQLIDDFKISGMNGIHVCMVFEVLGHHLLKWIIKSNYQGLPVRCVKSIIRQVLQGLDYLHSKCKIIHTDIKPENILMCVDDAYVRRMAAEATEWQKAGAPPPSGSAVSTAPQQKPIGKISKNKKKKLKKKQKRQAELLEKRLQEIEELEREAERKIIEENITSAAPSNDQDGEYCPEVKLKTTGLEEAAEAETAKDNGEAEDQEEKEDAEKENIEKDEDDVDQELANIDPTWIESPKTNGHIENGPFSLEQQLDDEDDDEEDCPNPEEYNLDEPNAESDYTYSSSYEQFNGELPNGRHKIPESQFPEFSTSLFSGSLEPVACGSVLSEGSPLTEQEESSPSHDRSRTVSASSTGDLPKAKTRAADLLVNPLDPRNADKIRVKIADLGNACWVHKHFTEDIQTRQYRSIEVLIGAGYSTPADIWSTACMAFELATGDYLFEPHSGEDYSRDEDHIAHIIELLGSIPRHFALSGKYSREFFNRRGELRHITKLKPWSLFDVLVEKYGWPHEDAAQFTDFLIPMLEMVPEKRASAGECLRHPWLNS
T26 sequence (P53779 whole entry): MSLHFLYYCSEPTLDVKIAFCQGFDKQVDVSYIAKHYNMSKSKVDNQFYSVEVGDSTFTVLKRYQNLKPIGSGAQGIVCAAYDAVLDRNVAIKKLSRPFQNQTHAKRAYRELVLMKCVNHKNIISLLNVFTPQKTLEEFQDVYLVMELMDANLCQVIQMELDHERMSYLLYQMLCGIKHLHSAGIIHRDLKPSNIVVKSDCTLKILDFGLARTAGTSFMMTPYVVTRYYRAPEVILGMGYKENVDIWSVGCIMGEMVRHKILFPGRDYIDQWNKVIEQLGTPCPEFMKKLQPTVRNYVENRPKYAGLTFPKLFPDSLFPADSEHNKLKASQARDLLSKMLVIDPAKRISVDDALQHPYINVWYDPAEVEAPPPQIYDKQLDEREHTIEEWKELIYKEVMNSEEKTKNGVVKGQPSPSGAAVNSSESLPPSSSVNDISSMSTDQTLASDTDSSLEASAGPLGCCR
T14 sequence (P29323 19-1055): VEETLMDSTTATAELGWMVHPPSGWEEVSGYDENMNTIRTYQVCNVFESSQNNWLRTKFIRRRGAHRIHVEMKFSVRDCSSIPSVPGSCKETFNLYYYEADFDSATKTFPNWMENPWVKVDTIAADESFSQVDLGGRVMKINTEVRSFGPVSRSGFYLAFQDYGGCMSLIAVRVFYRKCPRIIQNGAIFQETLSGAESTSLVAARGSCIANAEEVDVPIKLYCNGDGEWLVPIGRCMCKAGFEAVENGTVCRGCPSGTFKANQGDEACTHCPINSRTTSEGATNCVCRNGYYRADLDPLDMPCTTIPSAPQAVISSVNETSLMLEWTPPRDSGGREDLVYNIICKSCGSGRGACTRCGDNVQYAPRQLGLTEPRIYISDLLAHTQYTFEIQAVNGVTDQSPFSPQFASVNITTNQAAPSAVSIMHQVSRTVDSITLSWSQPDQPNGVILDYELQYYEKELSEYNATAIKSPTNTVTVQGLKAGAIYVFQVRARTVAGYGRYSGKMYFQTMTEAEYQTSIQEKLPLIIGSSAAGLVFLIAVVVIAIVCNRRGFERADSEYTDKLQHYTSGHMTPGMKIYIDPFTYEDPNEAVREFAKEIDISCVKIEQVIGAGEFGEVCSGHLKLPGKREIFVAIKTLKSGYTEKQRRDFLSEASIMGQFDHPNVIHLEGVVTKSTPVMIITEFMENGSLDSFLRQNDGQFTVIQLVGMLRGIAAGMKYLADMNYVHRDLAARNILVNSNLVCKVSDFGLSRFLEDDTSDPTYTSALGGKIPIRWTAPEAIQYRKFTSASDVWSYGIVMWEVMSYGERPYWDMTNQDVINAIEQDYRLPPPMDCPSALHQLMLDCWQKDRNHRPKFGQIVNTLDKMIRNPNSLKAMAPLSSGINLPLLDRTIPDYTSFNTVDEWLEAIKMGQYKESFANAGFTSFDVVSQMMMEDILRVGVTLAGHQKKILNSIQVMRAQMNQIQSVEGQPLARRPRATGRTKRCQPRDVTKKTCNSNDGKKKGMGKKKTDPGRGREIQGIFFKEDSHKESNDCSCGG
T15 sequence (Q8TDX7 whole entry): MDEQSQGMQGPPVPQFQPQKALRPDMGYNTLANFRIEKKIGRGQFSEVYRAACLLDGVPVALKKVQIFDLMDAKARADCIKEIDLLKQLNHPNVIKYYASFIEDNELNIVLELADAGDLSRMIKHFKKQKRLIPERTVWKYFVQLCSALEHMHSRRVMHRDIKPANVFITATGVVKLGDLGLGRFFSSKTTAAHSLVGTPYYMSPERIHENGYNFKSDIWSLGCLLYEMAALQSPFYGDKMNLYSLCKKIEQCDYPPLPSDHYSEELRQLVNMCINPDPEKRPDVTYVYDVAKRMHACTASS

## Nc1ccc(N=Nc2ccccc2)c(N)n1 [phenazopyridine, 2,6-diamino-3-(phenylazo)pyridine]
[1]
  kinase inhibition: 96
[2]
  remaining binding (% of control): 69
[3]
  kinase inhibition: 100
[4]
  kinase inhibition: 96
[5]
  kinase inhibition: 100
[6]
  kinase inhibition: 87
[7]
  kinase inhibition: 86
[8]
  remaining binding (% of control): 98
[9]
  kinase inhibition: 100
[10]
  kinase inhibition: 86
[11]
  kinase inhibition: 100
[12]
  kinase inhibition: 91
[13]
  kinase inhibition: 100
[14]
  kinase inhibition: 70
[15]
  kinase inhibition: 100
[16]
  kinase inhibition: 100
[17]
  remaining binding (% of control): 46
[18]
  kinase inhibition: 89
[19]
  kinase inhibition: 89
[20]
  kinase inhibition: 81
[21]
  kinase inhibition: 78
[22]
  toxicity (signal in the presence of propidium iodide): without any toxicity
[23]
  remaining binding (% of control): 87
[24]
  % of control (remaining binding): 92
[25]
  kinase inhibition: 100
[26]
  kinase inhibition: 100
[27]
  kinase inhibition: 91
[28]
  kinase inhibition: 86
[29]
  kinase inhibition: 100
[30]
  kinase inhibition: 87
[31]
  kinase inhibition: 58
[32]
  kinase inhibition: 74
[33]
  kinase inhibition: 73
[34]
  kinase inhibition: 100
[35]
  kinase inhibition: 100
[36]
  kinase inhibition: 86
